Measured values reported in PubChem BioAssay (NCI).
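A five-concentration, 48-hour dose response in 96-well plates underlies each endpoint, interpolated linearly between surrounding concentrations. Here, GI50 denotes the concentration required for 50% inhibition of growth. TGI denotes the concentration required for complete inhibition of growth.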

Assays:
Experiment in all cases: NCI tumour cell line growth inhibition, 48 h
[1] = system: CAKI-1 renal
[2] = system: MOLT-4 leukemia
[3] = system: PC-3 prostate
[4] = system: HCC-2998 colon
[5] = system: SN12C renal
[6] = system: SK-MEL-5 melanoma
[7] = system: CCRF-CEM leukemia
[8] = system: UACC-257 melanoma
[9] = system: M14 melanoma
[10] = system: SK-OV-3 ovarian
[11] = system: HS 578T breast
[12] = system: SK-MEL-2 melanoma
[13] = system: OVCAR-5 ovarian
[14] = system: SF-295 CNS
[15] = system: NCI-H522 lung
[16] = system: SF-268 CNS
[17] = system: SK-MEL-28 melanoma
[18] = system: T-47D breast
[19] = system: NCI-H23 lung
[20] = system: HCT-116 colon
[21] = system: OVCAR-4 ovarian
[22] = system: MDA-MB-231 breast
[23] = system: MDA-MB-435
[24] = system: SF-539 CNS
[25] = system: SR leukemia
[26] = system: NCI-H460 lung
[27] = system: K-562 leukemia
[28] = system: HT29 colon
[29] = system: ACHN renal
[30] = system: KM12 colon
[31] = system: OVCAR-8 ovarian
[32] = system: HL-60(TB) leukemia
[33] = system: SNB-75 CNS
[34] = system: HOP-62 NSCLC
[35] = system: MALME-3M melanoma
[36] = system: A549 NSCLC
[37] = system: LOX IMVI melanoma
[38] = system: TK-10 renal
[39] = system: BT-549 breast
[40] = system: COLO 205 colon
[41] = system: SW-620 colon
[42] = system: UO-31 renal
[43] = system: SNB-19 CNS
[44] = system: HOP-92 NSCLC
[45] = system: IGROV1 ovarian
[46] = system: EKVX NSCLC
[47] = system: NCI-H226 lung
[48] = system: U251 CNS
[49] = system: HCT-15 colon
[50] = system: 786-0 renal
[51] = system: UACC-62 melanoma
[52] = system: RPMI-8226 leukemia
[53] = system: NCI/ADR-RES ovarian
[54] = system: MCF7 breast
[55] = system: OVCAR-3 ovarian
[56] = system: A498 renal
[57] = system: DU-145 prostate

## COc1ccc2sc(NC(=O)CCCCCCNC(=O)C(O)(O)C(F)(F)F)nc2c1
[1]
  GI50: 1830 nM
  TGI: 14700 nM
[2]
  GI50: 1070 nM
  TGI: > 30300 nM
[3]
  GI50: 1720 nM
  TGI: > 30300 nM
[4]
  GI50: 2150 nM
  TGI: 7560 nM
[5]
  GI50: 2310 nM
  TGI: 19000 nM
[6]
  GI50: 1420 nM
  TGI: 4870 nM
[7]
  GI50: 1340 nM
  TGI: > 30300 nM
[8]
  GI50: 1490 nM
  TGI: 26800 nM
[9]
  GI50: 2070 nM
  TGI: > 30300 nM
[10]
  GI50: 860 nM
  TGI: 2310 nM
[11]
  GI50: 969 nM
  TGI: 9910 nM
[12]
  GI50: 1060 nM
  TGI: 5200 nM
[13]
  GI50: 912 nM
  TGI: 6260 nM
[14]
  GI50: 1070 nM
  TGI: 3410 nM
[15]
  GI50: 919 nM
  TGI: 4610 nM
[16]
  GI50: 1480 nM
  TGI: 8210 nM
[17]
  GI50: 1160 nM
  TGI: 7950 nM
[18]
  GI50: 879 nM
  TGI: 3020 nM
[19]
  GI50: 2830 nM
  TGI: 21700 nM
[20]
  GI50: 754 nM
  TGI: > 30300 nM
[21]
  GI50: 2800 nM
  TGI: > 30300 nM
[22]
  GI50: 680 nM
  TGI: 2240 nM
[23]
  GI50: 1030 nM
  TGI: 6000 nM
[24]
  GI50: 2050 nM
  TGI: > 30300 nM
[25]
  GI50: 738 nM
  TGI: > 30300 nM
[26]
  GI50: 877 nM
  TGI: 13500 nM
[27]
  GI50: 882 nM
  TGI: > 30300 nM
[28]
  GI50: 912 nM
  TGI: > 30300 nM
[29]
  GI50: 1180 nM
  TGI: 6580 nM
[30]
  GI50: 1290 nM
  TGI: 7400 nM
[31]
  GI50: 989 nM
  TGI: 6580 nM
[32]
  GI50: 1060 nM
  TGI: > 30300 nM
[33]
  GI50: 912 nM
  TGI: > 30300 nM
[34]
  GI50: 1330 nM
  TGI: > 30300 nM
[35]
  GI50: 1040 nM
  TGI: 12000 nM
[36]
  GI50: 1860 nM
  TGI: 18400 nM
[37]
  GI50: 1380 nM
  TGI: 5420 nM
[38]
  GI50: 736 nM
  TGI: > 30300 nM
[39]
  GI50: 1500 nM
  TGI: 18900 nM
[40]
  GI50: 920 nM
  TGI: 3650 nM
[41]
  GI50: 531 nM
  TGI: 1850 nM
[42]
  GI50: 1120 nM
  TGI: 5700 nM
[43]
  GI50: 2470 nM
  TGI: 14700 nM
[44]
  GI50: 649 nM
  TGI: 2470 nM
[45]
  GI50: 1830 nM
  TGI: 7730 nM
[46]
  GI50: 2330 nM
  TGI: > 30300 nM
[47]
  GI50: 4940 nM
  TGI: 22600 nM
[48]
  GI50: 1040 nM
  TGI: 5270 nM
[49]
  GI50: 3570 nM
  TGI: 10100 nM
[50]
  GI50: 1080 nM
  TGI: > 30300 nM
[51]
  GI50: 828 nM
  TGI: 3410 nM
[52]
  GI50: 988 nM
  TGI: > 30300 nM
[53]
  GI50: 2070 nM
  TGI: 18500 nM
[54]
  GI50: 1750 nM
  TGI: > 30300 nM
[55]
  GI50: 696 nM
  TGI: 2840 nM
[56]
  GI50: 901 nM
  TGI: 6470 nM
[57]
  GI50: 1010 nM
  TGI: 14000 nM
